In patent publication US20240319212A1, “METHOD OF MEASURING THE ENDOCYTIC VITAMIN D STATUS” (Immundiagnostik AG, priority 2018, published 2024):
“Also recorded” adds a separate entry of the source.

Legend:
albumin = albumin (Homo sapiens, UniProt P02768); details: cited from earlier work
DBP [1] = biological target: T1, DBP (Homo sapiens, UniProt P02774); details: cited from earlier work
T1 sequence (P02774 17-474): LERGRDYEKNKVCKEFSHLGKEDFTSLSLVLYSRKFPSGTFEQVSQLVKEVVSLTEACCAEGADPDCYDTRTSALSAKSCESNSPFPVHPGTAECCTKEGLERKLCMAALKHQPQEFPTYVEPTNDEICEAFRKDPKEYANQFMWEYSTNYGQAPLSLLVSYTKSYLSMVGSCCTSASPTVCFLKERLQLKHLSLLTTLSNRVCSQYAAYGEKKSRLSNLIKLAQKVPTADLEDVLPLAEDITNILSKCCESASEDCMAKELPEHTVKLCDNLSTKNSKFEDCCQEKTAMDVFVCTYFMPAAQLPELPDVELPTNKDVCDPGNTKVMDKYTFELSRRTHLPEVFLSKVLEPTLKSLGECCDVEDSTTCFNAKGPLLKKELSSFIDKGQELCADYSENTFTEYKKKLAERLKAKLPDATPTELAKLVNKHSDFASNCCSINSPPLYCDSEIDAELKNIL

megalin M2 fragment = biological target: T2, megalin M2 fragment (Homo sapiens, UniProt P02774+P98164); experiment: Microscale thermophoresis of DBP:VD-metabolite bound by megalin M2 fragment; assay type: binding; details: M2 titrated; for Kd: labelled DBP 50 nM mixed with metabolite 37.8 nM, read-out: dissociation constant Kd, megalin M2 fragment to complex DBP:vitamin D metabolite
T2 construct: megalin signal peptide (M1-G25) (N, cleaved yes); made in house
T2 sequence (P98164 1024-1429 limits assumed): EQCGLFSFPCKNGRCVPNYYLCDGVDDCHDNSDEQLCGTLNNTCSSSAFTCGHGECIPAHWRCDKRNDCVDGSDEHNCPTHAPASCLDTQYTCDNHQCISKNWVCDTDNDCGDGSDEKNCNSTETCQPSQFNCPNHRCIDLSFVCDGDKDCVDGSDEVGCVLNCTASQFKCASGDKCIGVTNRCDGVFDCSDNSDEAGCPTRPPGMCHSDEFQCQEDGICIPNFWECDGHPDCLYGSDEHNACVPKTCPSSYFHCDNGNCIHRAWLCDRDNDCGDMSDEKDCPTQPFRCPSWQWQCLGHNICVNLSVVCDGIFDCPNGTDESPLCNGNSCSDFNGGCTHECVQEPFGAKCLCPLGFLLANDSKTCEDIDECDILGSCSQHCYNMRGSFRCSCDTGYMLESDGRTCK
T2 sequence (P02774 17-474): T1 sequence (P02774 17-474)
Protocol: Purified megalin M2 was titrated in different concentrations. The dissociation constant Kd was calculated for every condition. The binding affinity was assessed by the dissociation constant Kd.
(§1) Microscale Thermophoresis assay. […] Parameters: laser power, 100%; LED, 80; laser on-time, 30 seconds; laser off-time, 5 seconds; temperature, 25° C. FNorm: normalized fluorescence; Kd: dissociation constant.

DBP [2] = biological target: T1, DBP; experiment: Microscale thermophoresis of DBP and vitamin D metabolites; assay type: binding; set-up: purchased Merck 345802; details: for binding affinity of vitamin D metabolite to DBP, in words: MST, comparison between metabolites; for Kd: NT-647 labelled DBP, metabolite titrated, read-out: dissociation constant Kd, DBP to vitamin D metabolite
Protocol: The binding properties of DBP and 25(OH)VD3, 25(OH)VD2, 24,25(OH)VD and 3C-epimer of 25(OH)D3 on the one hand and megalin on the other was further examined using microscale thermophoresis. […] The vitamin D metabolites were titrated with different concentrations. The dissociation constant Kd was calculated for every interaction partner. The binding affinity was assessed via the obtained dissociation constant Kd.
as §1

Sequence of albumin (P02768 25-609, species assumed): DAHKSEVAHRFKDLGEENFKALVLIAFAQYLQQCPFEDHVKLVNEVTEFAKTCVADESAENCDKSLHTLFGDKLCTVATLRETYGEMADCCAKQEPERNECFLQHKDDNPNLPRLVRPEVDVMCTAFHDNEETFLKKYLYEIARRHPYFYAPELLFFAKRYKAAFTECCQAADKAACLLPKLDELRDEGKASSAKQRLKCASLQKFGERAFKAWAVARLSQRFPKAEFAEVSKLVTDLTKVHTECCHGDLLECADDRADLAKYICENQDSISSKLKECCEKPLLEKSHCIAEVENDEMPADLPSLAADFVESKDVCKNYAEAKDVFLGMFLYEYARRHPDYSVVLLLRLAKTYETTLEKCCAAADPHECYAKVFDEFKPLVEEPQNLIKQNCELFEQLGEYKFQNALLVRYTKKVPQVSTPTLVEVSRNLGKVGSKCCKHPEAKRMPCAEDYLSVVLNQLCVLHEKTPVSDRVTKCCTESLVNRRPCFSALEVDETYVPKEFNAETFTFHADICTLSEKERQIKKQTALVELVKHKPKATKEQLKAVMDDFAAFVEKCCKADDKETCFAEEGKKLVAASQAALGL

Compound	binding affinity of vitamin D metabolite to DBP, in words (DBP [2])	Kd (megalin M2 fragment) [nM]	Kd (DBP [2]) [nM]	other results
25-hydroxyvitamin D [25(OH)D]				affinity Ka for albumin (albumin): 600000 M⁻¹; affinity Ka for DBP (DBP [1]): 7e+08 M⁻¹
C=C1CC[C@@H](O)C/C1=C/C=C1\CCC[C@]2(C)[C@@H]([C@H](C)CCCC(C)(C)O)CC[C@@H]12 [3C-epi25(OH)VD3, C3-epimer of 25-hydroxyvitamin D3]	bound most strongly			affinity of megalin M2 to DBP:metabolite complex, in words (megalin M2 fragment; labelled DBP 50 nM mixed with metabolite): very high affinity; binding affinity of vitamin D metabolite to DBP, in words (DBP [2]; listed as 3C epimer of 25(OH)D3): high binding affinity
C=C1CC[C@H](O)C/C1=C/C=C1\CCC[C@]2(C)[C@@H]([C@H](C)CCC(O)C(C)(C)O)CC[C@@H]12 (stereo partly drawn) [24,25(OH)VD, 24,25-dihydroxyvitamin D]	slightly weaker; also recorded: marginally lower	171		
C=C1CC[C@H](O)C/C1=C/C=C1\CCC[C@]2(C)[C@@H]([C@H](C)/C=C/[C@H](C)C(C)(C)O)CC[C@@H]12 [25(OH)VD2, 25-hydroxyvitamin D2]	comparable to Kd of DBP-VD3	160	2.81	
C=C1CC[C@H](O)C/C1=C/C=C1\CCC[C@]2(C)[C@@H]([C@H](C)CCCC(C)(C)O)CC[C@@H]12 [25(OH)VD3, 25-hydroxyvitamin D3]		33.7	1.88	
